Converted amounts (≈) assume the structure as drawn.
Tests used:
[1] = system: southern armyworm (Prodenia eridania, (Cram.)); test: Southern Armyworm Leaf Spray Test; format: in vivo; parameters: key to pesticidal activity rating, Armyworm: A: excellent control; B: partial control; C: no control
Protocol: Larvae of the southern armyworm (Prodenia eridania, (Cram.)), reared on Tendergreen bean plants at a temperature of 80°±5° F. and a relative humidity of 50±5 percent, constituted the test insects.
The test compounds were formulated by diluting the stock suspension with water to give a suspension containing 500 parts of test compound per million parts of final formulation. Potted Tendergreen bean plants of standard height and age were placed on a revolving turntable and sprayed with 100-110 milliliters of test compound formulation by use of a DeVilbiss spray gun set at 10 psig air pressure. This application, which lasted 25 seconds, was sufficient to wet plants to run-off. As a control, 100-110 milliliters of a water-acetone-emulsifier solution containing no test compound were also sprayed on infested plants. When dry, the paired leaves were separated and each one was placed in a 9 centimeter Petri dish lined with moistened filter paper. Five randomly selected larvae were introduced into each dish and the dishes were closed. The closed dishes were labeled and held at 80°-85° F. for 3 days. Although the larvae could easily consume the whole leaf within 24 hours, no more food was added. Larvae which were unable to move the length of the body, even upon stimulation by prodding, were considered dead. Percent mortality was recorded for various concentration levels.
(§1) In these tests the pesticidal activity of the compounds against aphid, mite, Southern Armyworm, Bean Beetle and House fly was rated as follows:
(§2) The LD50 values shown in the above Table II were determined by testing the compositions over an appropriate concentration range obtained by serial dilution of the stock suspension with water. The percent kill was plotted on log-probit graph paper versus parts per million concentration, and the LD50 read from an eye-fitted line drawn through the resultant points.

[2] = Peroral toxicity to mammals (rat); format: in vivo; settings: in vivo, po; rat, peroral, Table II; read-out: Rat P.O. LD50
Protocol: (§3) Certain of these compositions were also evaluated to determine their peroral toxicity to mammals. The animal selected for this experiment was the rat. The test results obtained are expressed in terms of the number of milligrams of composition per kilogram of weight of the animal required to achieve a mortality rate of 50 percent (LD50).

rat = test: Peroral toxicity to mammals (rat); format: in vivo; settings: fraction of the toxicity of the methylcarbamoyl compound; rat P.O. LD50
Protocol: as §3

[3] = system: house flies (Musca domestica, L.); test: Fly Bait Test; format: in vivo; parameters: key to pesticidal activity rating, Housefly: A: excellent control; B: partial control; C: no control
Protocol: Four to 6 day old adult house flies (Musca domestica, L.), reared according to the specifications of the Chemical Specialities Manufacturing Association (Blue Book, McNair-Dorland Co., N.Y. 1954; pages 243-244, 261) under controlled conditions of 80°±5° F. and 50±5 percent relative humidity, were the test insects. The flies were immobilized by anesthetizing with carbon dioxide and twenty five immobilized individuals, males and females, were transferred to a cage consisting of a standard food strainer about 5 inches in diameter which was inverted over a wrapping-paper-covered surface. The test compounds were formulated by diluting the stock suspension with a 10 percent (by weight) sugar solution to give a suspension containing 500 parts of test compound per million parts of final formulation, by weight. Ten milliliters of the test formulation were added to a souffle cup containing a 1-inch square of an absorbent cotton pad. This bait cup was introduced and centered on the blotting paper under the food strainer prior to admitting the anesthetized flies. The caged flies were allowed to feed on the bait for 24 hours, at a temperature of 80°±5° F. and the relative humidity of 50±5 percent.
as §1, §2

[4] = system: two-spotted mite (Tetranychus urticae Koch); test: Mite Foliage Spray Test; format: in vivo; parameters: key to pesticidal activity rating, Mite: A: excellent control; B: partial control; C: no control
Protocol: (§4) Adults and nymphal stages of the two-spotted mite (Tetranychus urticae Koch), reared on Tendergreen bean plants at 80±5 percent relative humidity, were the test organisms. Infested leaves from a stock culture were placed on the primary leaves of two bean plants 6 to 8 inches in height, growing in a 21/2 inch clay pot. 150-200 Mites, a sufficient number for testing, transferred from the excised leaves to the fresh plants in a period of 24 hours. Following the 24 hour transfer period, the excised leaves were removed from the infested plants. The test compounds were formulated by diluting the stock suspension with water to give a suspension containing 500 parts of test compound per million parts of final formulation. The potted plants (one pot per compound) were placed on a revolving turntable and sprayed with 100-110 milliliters of test compound formulation by use of a DeVilbiss spray gun set at 40 psig. air pressure. This application, which lasted 25 seconds, was sufficient to wet the plants to run-off. As a control, 100-110 milliliters of a water solution containing acetone and emulsifier in the same concentrations as the test compound formulation, but containing no test compound, were also sprayed on infested plants. The sprayed plants were held at 80±5 percent relative humidity for 6 days, after which a mortality count of motile forms was made. Microscopic examination for motile forms was made on the leaves of the test plants. Any individual which was capable of locomotion upon prodding was considered living.
as §1, §2

mites = test: Systemic miticidal activity (soil drench of infested bean plants); format: in vivo, Tetranychus urticae Koch; settings: Table II
Protocol: as §4, §2
Systemic treatments were made by drenching 20 milliliters of the test compound formulation into the soil around the roots of bean plants growing in 21/2 inch clay pots. […]

[5] = system: Mexican bean beetle (Epilachna varivestis, Muls.); test: Mexican Bean Beetle Leaf Spray Test; format: in vivo; parameters: key to pesticidal activity rating, Bean beetle: A: excellent control; B: partial control; C: no control
Protocol: Fourth instar larvae of the Mexican bean beetle (Epilachna varivestis, Muls.), reared on Tendergreen bean plants at a temperature of 80°±5° F. and 50±5 percent relative humidity, were the test insects.
The test compounds were formulated by diluting the stock suspension with water to give a suspension containing 500 parts of test compound per million parts of final formulation. Potted Tendergreen bean plants of standard height and age were placed on a revolving turntable and sprayed with 100-110 milliliters of test compound formulation by use of a DeVilbiss spray gun set at 10 psig air pressure. This application, which lasted 25 seconds, was sufficient to wet plants to run-off. As a control, 100-110 milliliters of a water-acetone-emulsifier solution containing no test compound were also sprayed on infested plants. When dry, the paired leaves were separated and each was placed in a 9 centimeter Petri dish lined with moistened filter paper. Five randomly selected larvae were introduced into each dish, and the dishes were closed. The closed dishes were labeled and held at a temperature of 80°±5° F. for 3 days. Although the larvae could easily consume the leaf within 24 to 48 hours, no more food was added. Larvae which were unable to move the length of the body, even upon stimulation, were considered dead.
as §1, §2

CN(SC(Cl)(Cl)Cl)C(=O)ON=C1CSCCS1 [2-[(N-METHYL-N-TRICHLOROMETHANESULFENYL)-CARBAMOYLOXIMINO]-1,4-DITHIANE]
pesticidal activity rating, Armyworm ([1]; 500 parts per million, 3 days): A
LC50 ([1]; Spodoptera eridania, 72 h, Table II, read-out: Insect Toxicity, LD50, Armyworm): 52 µg/mL (≈ 146 µM)
LD50 [2]: 149 mg/kg
mammalian toxicity relative to the methylcarbamoyl compound (rat): 1/10
pesticidal activity rating, Housefly ([3]; 500 parts per million, 24 hours): A
LC50 ([3]; Musca domestica, 24 h, Table II, read-out: Insect Toxicity, LD50, House fly): 2 µg/mL (≈ 5.62 µM)
pesticidal activity rating, Mite ([4]; 500 parts per million, 6 days): A
LC50 ([4]; Tetranychus urticae, foliar, Table II, read-out: Insect Toxicity, LD50, Mite): 7 µg/mL (≈ 19.7 µM)
systemic activity relative to the methylcarbamoyl composition (mites): higher degree of systemic activity
LC50 (mites; Tetranychus urticae, systemic, soil drench, value in parentheses, read-out: Insect Toxicity, LD50, Mite, systemic activity): 3 µg/mL (≈ 8.43 µM)
LC50 ([5]; Epilachna varivestis, 72 h, leaf spray, Table II, read-out: Insect Toxicity, LD50, Mexican Bean beetle): 10 µg/mL (≈ 28.1 µM)
insect toxicity on bean-beetle relative to the methylcarbamoyl composition ([5]; from LD50 values of Table II): five-fold improvement
pesticidal activity rating, Bean beetle ([5]; leaf spray, 500 parts per million, 3 days): A
